Assay results published in patent publication US20050197350A1, “Novel quinoline, tetrahydroquinazoline, and pyrimidine derivatives and methods of treatment related to the use thereof” (TAISHO PHARMACEUTICAL CO., LTD., priority 2003, published 2005).
Counter-ions that a name gives are not always drawn. Like-named read-outs stand apart in the source and are kept apart here.

Target: MCH receptor (Homo sapiens, UniProt Q99705)
Experiment: High throughput functional screening FLIPR/FDSS6000 (intracellular Ca2+ evoked by MCH)
Type: cell-based
Details: FLIPR/FDSS, antagonist activity vs 50 nM MCH, class by percent of control at 10^−7 M or IC50, read-out: class
Method in brief: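 For antagonist testing, compound-treated cells (30 min, 37 °C) were stimulated with 50 nM MCH and intracellular Ca2+ followed by Fluo4 fluorescence on FLIPR/FDSS6000. Receptor was a constitutively active, non-endogenous MCH receptor; dye loading 4 μM Fluo4-AM, 1 h, 37 °C.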

Row | Compound | IC50 (table after the classification) [nM] | IC50 [nM]
1 | CN(C)c1cc(N[C@H]2CC[C@@H](NCc3ccc(Br)cc3OC(F)(F)F)CC2)nc2ccccc12 [Example 5, N^2-[cis-4-(4-Bromo-2-trifluoromethoxy-benzyl)-amino-cyclohexyl]-N^4,N^4-dimethyl-quinoline-2,4-diamine dihydrochloride] | 50 to 200 | 
2 | Cc1cc(N[C@H]2CC[C@@H](C(=O)N[C@H](C)c3ccc(Cl)cc3)CC2)nc2ccccc12 [Example 3305, cis-N-[(1R)-1-(4-chlorophenyl)ethyl]-4-[(4-methylquinolin-2-yl)amino]cyclohexanecarboxamide] |  | 50 to 200
3 | Cc1cc(N[C@H]2CC[C@@H](NC(=O)c3cccc(OC(F)(F)F)c3)CC2)nc2ccccc12 [Example 3158, N-[cis-4-(4-Methyl-quinolin-2-ylamino)-cyclohexyl]-3-trifluoromethoxy-benzamide hydrochloride] | < 50 | 
4 | Cc1cnc(N[C@H]2CC[C@@H](NC(=O)Nc3ccc(Cl)cc3Cl)CC2)nc1N(C)C [Example 3338, N-(2,4-dichlorophenyl)-N′-(cis-4-{[4-(dimethylamino)-5-methylpyrimidin-2-yl]amino}cyclohexyl)urea] |  | 50 to 200
5 | Cc1cc(C(=O)N[C@H]2CC[C@@H](Nc3ccc4ccccc4n3)CC2)ccc1F [Example 3046, 4-Fluoro-3-methyl-N-[cis-4-(quinolin-2-ylamino)-cyclohexyl]-benzamide hydrochloride] | < 50 | 
6 | Cc1cnc(N[C@H]2CC[C@@H](NC(=O)c3cccnc3S(=O)(=O)c3cccc(Br)c3)CC2)nc1N(C)C [Example 3285, 2-[(3-bromophenyl)sulfonyl]-N-(cis-4-{[4-(dimethylamino)-5-methylpyrimidin-2-yl]amino}cyclohexyl)nicotinamide] |  | 50 to 200
7 | O=C(CNc1ccc(Cl)c(Cl)c1)N[C@H]1CC[C@@H](Nc2ccc3ccccc3n2)CC1 [Example 3067, 2-(3,4-Dichloro-phenylamino)-N-[cis-4-(quinolin-2-ylamino)-cyclohexyl]-acetamide dihydrochloride] | 50 to 200 | 
8 | Cc1cnc(N[C@H]2CC[C@@H](NC(=O)c3cccnc3Oc3ccccc3Br)CC2)nc1N(C)C [Example 3124, 2-(2-Bromo-phenoxy)-N-[cis-4-(4-dimethylamino-5-methyl-pyrimidin-2-ylamino)-cyclohexyl]-nicotinamide hydrochloride] | < 50 | 
9 | NC(=O)c1cccc(C(=O)N[C@H]2CC[C@@H](Nc3ccc4ccccc4n3)CC2)c1 [Example 3155, N-[cis-4-(Quinolin-2-ylamino)cyclohexyl]-isophthalamide hydrochloride] | > 200 | 
10 | Cc1cc(N[C@H]2CC[C@@H](NC(=O)c3ccc(OC(F)(F)F)cc3)CC2)nc2ccccc12 [Example 3382, N-{cis-4-[(4-methylquinolin-2-yl)amino]cyclohexyl}-4-(trifluoromethoxy)benzamide] |  | < 50
11 | Cc1cc(N(C)C)nc(N[C@H]2CC[C@@H](NC(=O)c3cccnc3S(=O)(=O)c3ccc(Br)cc3)CC2)n1 [Example 3374, 2-[(4-bromophenyl)sulfonyl]-N-(cis-4-{[4-(dimethylamino)-6-methylpyrimidin-2-yl]amino}cyclohexyl)nicotinamide] |  | > 200
12 | Cc1cc(N(C)C)nc(N[C@H]2CC[C@@H](NC(=O)c3cccnc3S(=O)(=O)c3ccccc3C)CC2)n1 [Example 3375, N-(cis-4-{[4-(dimethylamino)-6-methylpyrimidin-2-yl]amino}cyclohexyl)-2-[(2-methylphenyl)sulfonyl]nicotinamide] |  | 50 to 200
13 | CNc1ccnc(N[C@H]2CC[C@@H](NC(=O)c3ccc(F)c(F)c3)CC2)n1 [Example 3223, 3,4-Difluoro-N-[cis-4-(4-methylamino-pyrimidin-2-ylamino)-cyclohexyl]-benzamide-hydrochloride] | > 200 | 
14 | Cc1cc(N(C)C)nc(N[C@H]2CC[C@@H](NC(=O)NC(C)(C)c3cc(C(F)(F)F)cc(C(F)(F)F)c3)CC2)n1 [Example 3263, N-{1-[3,5-bis(trifluoromethyl)phenyl]-1-methylethyl}-N′-(cis-4-{[4-(dimethylamino)-6-methylpyrimidin-2-yl]amino}-cyclohexyl)urea] |  | 50 to 200
15 | O=C(N[C@H]1CC[C@@H](Nc2ccc3ccccc3n2)CC1)c1cccc(O)c1 [Example 3146, 3-Hydroxy-N-[cis-4-(quinolin-2-ylamino)-cyclohexyl]-benzamide hydrochloride] | < 50 | 
16 | O=C(N[C@H]1CC[C@@H](Nc2ccc3ccccc3n2)CC1)c1ccc(-c2ccc(Cl)cc2)o1 [Example 3044, 5-(4-Chloro-phenyl)-furan-2-carboxylic acid [cis-4-(quinolin-2-ylamino)-cyclohexyl]-amide hydrochloride] | 50 to 200 | 
17 | COc1cccc(C(=O)N[C@H]2CC[C@@H](Nc3cc(C)c4ccccc4n3)CC2)c1 [Example 3076, 3-Methoxy-N-[cis-4-(4-methyl-quinolin-2-ylamino)-cyclohexyl]-benzamide hydrochloride] | < 50 | 

Row | Compound | IC50 (table after the classification) [nM] | IC50 [nM]
18 | CNc1nc(N[C@H]2CC[C@@H](NC(=O)COc3cc(C(F)(F)F)ncn3)CC2)ncc1C [Example 3363, N-(cis-4-{[5-methyl-4-(methylamino)pyrimidin-2-yl]amino}-cyclohexyl)-2-{[6-(trifluoromethyl)pyrimidin-4-yl]oxy}acetamide] |  | > 200
19 | CN(C)c1ccnc(N[C@H]2CC[C@@H](NC(=O)c3cccnc3Oc3ccccc3)CC2)n1 [Example 3129, N-[cis-4-(4-Dimethylamino-pyrimidin-2-ylamino)-cyclohexyl]-2-phenoxy-nicotinamide hydrochloride] | 50 to 200 | 
20 | CN(C)c1nc(N[C@H]2CC[C@@H](NC(=O)c3csc([N+](=O)[O-])c3)CC2)nc2c1CCCC2 [Example 3193, 5-Nitro-thiophene-3-carboxylic acid [cis-4-(4-dimethylamino-5,6,7,8-tetrahydro-quinazolin-2-ylamino)-cyclohexyl]-amide hydrochloride] | < 50 | 
21 | COc1cccc(S(=O)(=O)c2ncccc2C(=O)N[C@H]2CC[C@@H](Nc3nc(C)cc(N(C)C)n3)CC2)c1 [Example 3379, N-(cis-4-{[4-(dimethylamino)-6-methylpyrimidin-2-yl]amino}cyclohexyl)-2-[(3-methoxyphenyl)sulfonyl]-nicotinamide] |  | > 200
22 | Cc1cnc(N[C@H]2CC[C@@H](C(=O)NC(C)(C)c3ccc(Cl)cc3)CC2)nc1N(C)C [Example 3273, cis-N-[1-(4-chlorophenyl)-1-methylethyl]-4-{[4-(dimethylamino)-5-methylpyrimidin-2-yl]amino}cyclohexanecarboxamide] |  | 50 to 200
23 | CN(C)c1cc(N(C)C)nc(N[C@H]2CC[C@@H](NC(=O)c3ccc(F)c(F)c3)CC2)n1 [Example 3232, N-[cis-4-(4,6-Bis-dimethylamino-pyrimidin-2-ylamino)-cyclohexyl]-3,4-difluoro-benzamide hydrochloride] | 50 to 200 | 
24 | COc1cccc(OCC(=O)N[C@H]2CC[C@@H](Nc3nccc(N(C)C)n3)CC2)c1 [Example 3394, N-[cis-4-(4-Dimethylamino-pyrimidin-2-ylamino)-cyclohexyl]-2-(3-methoxy-phenoxy)-acetamide hydrochloride] | < 50 | 
25 | COc1cccc(C(=O)N[C@H]2CC[C@@H](Nc3ccc4ccccc4n3)CC2)c1 [Example 3240, 3-Methoxy-N-[cis-4-(quinolin-2-ylamino)-cyclohexyl]-benzamide methanesulfonic acid] | < 50 | 
26 | Cc1cnc(N[C@H]2CC[C@@H](NC(=O)Nc3cccc(F)c3)CC2)nc1N(C)C [Example 3325, N-(cis-4-{[4-(dimethylamino)-5-methylpyrimidin-2-yl]amino}cyclohexyl)-N′-(3-fluorophenyl)urea] |  | 50 to 200
27 | O=C(N[C@H]1CC[C@@H](Nc2ccc3ccccc3n2)CC1)c1cccnc1Cl [Example 3037, 2-Chloro-N-[cis-4-(quinolin-2-ylamino)-cyclohexyl]-nicotinamide hydrochloride] | > 200 | 
28 | COC(=O)c1cccc(C(=O)N[C@H]2CC[C@@H](Nc3ccc4ccccc4n3)CC2)c1 [Example 3147, N-[cis-4-(Quinolin-2-ylamino)-cyclohexyl]-isophthalamic acid methyl ester hydrochloride] | 50 to 200 | 
29 | CNc1nc(N[C@H]2CC[C@@H](NCc3ccc(Br)cc3OC(F)(F)F)CC2)nc2c1CCCC2 [Example 9, N^2-[cis-4-(4-Bromo-2-trifluoromethoxy-benzyl)amino-cyclohexyl]-N^4-methyl-5,6,7,8-tetrahydro-quinazoline-2,4-diamine dihydrochloride] | > 200 | 
30 | Cc1cc(N(C)C)nc(N[C@H]2CC[C@@H](C(=O)NC(C)(C)c3ccc(Cl)cc3)CC2)n1 [Example 3274, cis-N-[1-(4-chlorophenyl)-1-methylethyl]-4-{[4-(dimethylamino)-6-methylpyrimidin-2-yl]amino}cyclohexanecarboxamide] |  | > 200
31 | Cc1ccc(S(=O)(=O)c2ncccc2C(=O)N[C@H]2CC[C@@H](Nc3nc(C)cc(N(C)C)n3)CC2)cc1 [Example 3377, N-(cis-4-{[4-(dimethylamino)-6-methylpyrimidin-2-yl]amino}cyclohexyl)-2-[(4-methylphenyl)sulfonyl]nicotinamide] |  | 50 to 200
32 | CN(C)c1cc(N[C@H]2CC[C@@H](NC(=O)c3ccc(F)c(F)c3)CC2)nc2ccccc12 [Example 3188, N-[cis-4-(4-Dimethylamino-quinolin-2-ylamino)-cyclohexyl]-3,4-difluoro-benzamide hydrochloride] | < 50 | 
33 | CN(C)c1nc(N[C@H]2CC[C@@H](NC(=O)c3cccc([N+](=O)[O-])c3)CC2)nc2c1CCCC2 [Example 3112, N-[cis-4-(4-Dimethylamino-5,6,7,8-tetrahydro-quinazolin-2-ylamino)-cyclohexyl]-3-nitro-benzamide hydrochloride] | < 50 | 
